One assay concerns CREB. As to the kind of experiment: Immunoblotting of CREB phosphorylation in LPS-stimulated macrophages. The class given is cell-based, mouse. Here is the method: Bone-marrow derived macrophages were differentiated for 7 days in DMEM supplemented with 5 ng/ml recombinant M-CSF (R&D systems), 2 mM glutamine, 10% foetal calf serum, penicillin and streptomycin. […]
Cells were rinsed in ice-cold PBS and extracted in lysis buffer (50 mM Tris/HCl pH 7.4, 1 mM EDTA, 1 mM EGTA, 50 mM NaF, 5 mM sodium pyrophosphate, 10 mM sodium α-glycerol 1-phosphate, 1 mM dithiothreitol, 1 mM sodium orthovanadate, 0.27 M sucrose, 1% (v/v) Triton X-100, 1 μg/ml aprotinin, 1 μg/ml leupeptin and 1 mM phenylmethylsulphonyl fluoride). Cell extracts were clarified by centrifugation at 14000×g for 10 min at 4° C. and protein concentrations determined using the Bradford assay. To detect proteins in cell lysates, 20 μg of protein extract was separated by SDS-PAGE. After transfer to PVDF membranes, proteins were detected by immunoblotting and visualized by treating the blots with ECL (Amersham) followed by autoradiography. The antibody recognizing CREB phosphorylated at Ser133 was from Cell Signalling Technology and the one detecting α-tubulin was obtained from Sigma.
A general note: A western blot detects proteins with antibodies after separation by electrophoresis.

In another assay the test system is CRTC3. As to the kind of experiment: CRTC3 phosphorylation in macrophages (phosphoproteomics, immunoblotting). The class given is cell-based. Here is the method: RAW264.7 cells were labelled using the Stable Isotope Labelling of Amino Acids in Cell Culture (SILAC) method. […] The cells were lysed in detergent-free lysis buffer (8 M urea, 50 mM Tris pH8.2, 10 mM glycerol 2-phosphate, 50 mM sodium fluoride, 5 mM sodium pyrophosphate, 1 mM EDTA, 1 mM sodium orthovanadate, 10 mM DTT, 1 mM PMSF, 1 μg/ml aprotinin, 1 μg/ml leupeptin), the extract clarified by centrifugation and protein concentration determined using the Bradford method. 2 mg of cell extract protein from each experimental condition were mixed in a 1:1:1 ratio and then alkylated with 50 mM iodoacetamide for 30 min. […] Phosphopeptides from these samples were enriched using a standard Fe^3+-IMAC enrichment protocol^32 and measured by LC-MS/MS. […] The data was analysed using MaxQUANT^33.
Cells were rinsed in ice-cold PBS and extracted in lysis buffer (50 mM Tris/HCl pH 7.4, 1 mM EDTA, 1 mM EGTA, 50 mM NaF, 5 mM sodium pyrophosphate, 10 mM sodium β-glycerol 1-phosphate, 1 mM dithiothreitol, 1 mM sodium orthovanadate, 0.27 M sucrose, 1% (v/v) Triton X-100, 1 μg/ml aprotinin, 1 μg/ml leupeptin and 1 mM phenylmethylsulphonyl fluoride). Cell extracts were clarified by centrifugation at 14000×g for 10 min at 4° C. and protein concentrations were determined using the Bradford assay. […]

Molecules are shown by their SMILES. Entries after “also recorded” stand apart in the source; their conditions may differ.

Regarding `O=C(NCCCNc1nc(Nc2cccc(CN3CCOCC3)c2)ncc1C1CC1)C1CCC1` [MRT67307], the “phosphorylation of CREB at Ser133 induced by LPS” value in the assay on CREB was “little effect”. Further, the “phosphorylation of CRTC3” value with CRTC3 (2 μM MRT67307, Pam3CSK4-stimulated macrophages, phosphoproteomic study) was “robustly dephosphorylated at Ser62, Ser329 and Ser370; also recorded: blocked”. For the same compound, the “phosphorylation of CRTC3 at Ser370” value in the assay with CRTC3 (LPS stimulation) is listed as “blocked”.

Values taken from patent US10233157B2, “SIK inhibitor for use in a method of treating an inflammatory and/or immune disorder” (Dana-Farber Cancer Institute, Inc., priority 2012, dated 2019).
